From patent publication US4634783A, “Novel amidine compound” (Torii & Co. Ltd., priority 1983, dated 1987)
Read-outs that look alike come from different tables or passages of the source.

Assays:
Trypsin = molecular target: T1, Trypsin (Bos taurus, UniProt P00760); test: anti-trypsin activity (hydrolysis of TAME); format: biochemical; settings: read-out: ID50 Trypsin
T1 sequence (P00760 24-246): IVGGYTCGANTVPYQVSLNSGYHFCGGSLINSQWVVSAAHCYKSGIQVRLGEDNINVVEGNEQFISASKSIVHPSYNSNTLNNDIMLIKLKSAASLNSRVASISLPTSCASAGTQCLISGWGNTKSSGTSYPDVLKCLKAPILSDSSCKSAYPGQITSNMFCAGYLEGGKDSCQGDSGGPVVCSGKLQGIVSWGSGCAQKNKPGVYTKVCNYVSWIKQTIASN
Description: (§1) The anti-trypsin, anti-plasmin, anti-kallikrein and anti-thrombin activities were determined according to the method of Muramatsu et al. [M. Muramatsu, T. Onishi, S. Makino, Y. Hayashi and S. Fujii, J. of Biochem., 58, 214 (1965)]. […] The compound No. corresponds to the compound number shown in Examples.

Plasmin = Plasmin (Homo sapiens, UniProt P00747); test: anti-plasmin activity (hydrolysis of TAME); format: biochemical; settings: for IC50: TAME hydrolysis, read-out: ID50 Plasmin; for inhibition at 10 µM: at 1×10^-5 M, figure in parentheses, read-out: percentage inhibition Plasmin
Plasmin, sequence (P00747 581-810 limits assumed, species assumed): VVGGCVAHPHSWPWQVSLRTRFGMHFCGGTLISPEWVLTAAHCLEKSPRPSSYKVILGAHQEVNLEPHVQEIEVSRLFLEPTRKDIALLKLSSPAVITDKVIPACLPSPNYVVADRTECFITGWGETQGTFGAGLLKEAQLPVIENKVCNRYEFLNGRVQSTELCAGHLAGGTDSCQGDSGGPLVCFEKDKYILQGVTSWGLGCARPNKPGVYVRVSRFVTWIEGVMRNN
Plasmin, sequence (P00747 97-580 limits assumed, species assumed): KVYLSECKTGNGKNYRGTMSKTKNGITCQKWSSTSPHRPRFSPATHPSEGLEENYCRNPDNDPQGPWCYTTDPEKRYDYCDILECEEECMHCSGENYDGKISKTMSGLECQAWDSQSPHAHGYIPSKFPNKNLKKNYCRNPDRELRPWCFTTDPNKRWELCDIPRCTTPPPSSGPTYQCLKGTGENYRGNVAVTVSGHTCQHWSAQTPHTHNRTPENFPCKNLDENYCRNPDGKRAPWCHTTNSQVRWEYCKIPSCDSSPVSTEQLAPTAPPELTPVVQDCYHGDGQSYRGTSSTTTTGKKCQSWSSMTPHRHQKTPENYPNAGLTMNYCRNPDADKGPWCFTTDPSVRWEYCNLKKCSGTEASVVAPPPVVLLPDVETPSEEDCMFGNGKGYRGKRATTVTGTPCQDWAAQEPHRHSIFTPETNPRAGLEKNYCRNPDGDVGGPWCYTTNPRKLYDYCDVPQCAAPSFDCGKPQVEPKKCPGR
Description: as §1

Kallikrein = test: anti-kallikrein activity (hydrolysis of TAME); format: biochemical; settings: for IC50: TAME hydrolysis, read-out: ID50 Kallikrein; for percentage inhibition Kallikrein: at 1×10^-5 M, figure in parentheses
Description: as §1

Thrombin = Thrombin (Homo sapiens, UniProt P00734); test: biochemical; settings: for IC50: read-out: ID50 Thrombin; for inhibition at 10 µM: at 1×10^-5 M, figure in parentheses, read-out: percentage inhibition Thrombin
C1r = molecular target: T2, C1r (Homo sapiens, UniProt P00736); test: anti-C1 esterase (C1r) activity (hydrolysis of AAME); format: biochemical; settings: for IC50: AAME hydrolysis, read-out: ID50 C1r; for inhibition at 10 µM: at 1×10^-5 M, figure in parentheses, read-out: percent inhibition C1r
T2 sequence (P00736 464-705 limits assumed): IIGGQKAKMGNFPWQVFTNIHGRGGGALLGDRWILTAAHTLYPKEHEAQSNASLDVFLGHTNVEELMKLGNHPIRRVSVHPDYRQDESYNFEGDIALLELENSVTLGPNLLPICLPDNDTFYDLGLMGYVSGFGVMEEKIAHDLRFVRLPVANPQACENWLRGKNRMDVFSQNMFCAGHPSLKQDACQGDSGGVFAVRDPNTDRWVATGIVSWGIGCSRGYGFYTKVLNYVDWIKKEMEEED
T2 sequence (P00736 18-463 limits assumed): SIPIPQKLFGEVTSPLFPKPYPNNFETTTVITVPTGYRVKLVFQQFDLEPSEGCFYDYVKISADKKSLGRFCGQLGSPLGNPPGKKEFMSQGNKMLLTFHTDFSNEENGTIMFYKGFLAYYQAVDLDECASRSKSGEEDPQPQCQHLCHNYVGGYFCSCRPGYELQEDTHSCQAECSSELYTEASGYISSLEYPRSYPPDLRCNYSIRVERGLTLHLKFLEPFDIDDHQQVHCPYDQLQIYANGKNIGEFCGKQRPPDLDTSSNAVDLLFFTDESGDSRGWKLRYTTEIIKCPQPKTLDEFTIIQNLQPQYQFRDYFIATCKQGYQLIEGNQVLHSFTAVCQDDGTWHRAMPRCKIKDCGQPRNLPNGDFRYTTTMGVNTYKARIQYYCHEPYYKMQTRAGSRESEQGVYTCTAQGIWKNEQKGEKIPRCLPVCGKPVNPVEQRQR
Description: (§2) The anti-C1 esterase (C1r, C1s) activity was determined according to the method of Okamura et al. [K. Okamura, M. Muramatsu and B. Fujii, Biochem. Biophys. Acta, 295, 252-257 (1973)]. The inhibition of complement mediated hemolysis was determined according to the method of Baker et al. [B. R. Baker and E. H. Erickson, J. Med. Chem., 12, 408-414 (1969)]. The figures in Table 2 have the following meanings:
C1r: Molar concentration of the test compound which inhibits 50% of the ability of C1r to hydrolyse AAME (acetylarginin methyl ester) (ID50).

C1s = molecular target: T3, C1s (Homo sapiens, UniProt P09871); test: anti-C1 esterase (C1s) activity (hydrolysis of ATEE); format: biochemical; settings: for IC50: ATEE hydrolysis, read-out: ID50 C1s; for inhibition at 10 µM: at 1×10^-5 M, figure in parentheses, read-out: percent inhibition C1s
T3 sequence (P09871 438-688 limits assumed): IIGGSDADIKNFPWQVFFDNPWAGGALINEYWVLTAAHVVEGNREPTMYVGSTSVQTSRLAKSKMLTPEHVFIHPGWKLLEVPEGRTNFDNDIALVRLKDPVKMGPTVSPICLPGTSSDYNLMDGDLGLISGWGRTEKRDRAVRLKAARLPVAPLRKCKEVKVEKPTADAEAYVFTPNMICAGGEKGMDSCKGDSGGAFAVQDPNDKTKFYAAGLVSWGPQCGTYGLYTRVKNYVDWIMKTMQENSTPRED
T3 sequence (P09871 16-437 limits assumed): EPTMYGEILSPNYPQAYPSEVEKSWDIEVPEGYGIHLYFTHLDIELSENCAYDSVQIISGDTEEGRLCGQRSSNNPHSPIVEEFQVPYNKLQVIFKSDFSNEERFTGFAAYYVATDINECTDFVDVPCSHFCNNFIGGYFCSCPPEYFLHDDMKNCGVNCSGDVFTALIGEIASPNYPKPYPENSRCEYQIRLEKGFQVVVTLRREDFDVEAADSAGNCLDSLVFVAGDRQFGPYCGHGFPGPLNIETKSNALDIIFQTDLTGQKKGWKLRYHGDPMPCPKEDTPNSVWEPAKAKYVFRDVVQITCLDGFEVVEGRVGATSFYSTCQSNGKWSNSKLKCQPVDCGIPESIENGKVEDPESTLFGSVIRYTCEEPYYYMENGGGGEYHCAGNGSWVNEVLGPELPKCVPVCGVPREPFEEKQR
Description: as §2
C1s: Molar concentration of the test compound which inhibits 50% of the ability of C1s to hydrolyse ATEE (acetyltyrosin ethyl ester) (ID50).

[1] = system: complement mediated hemolysis; test: inhibition of complement mediated hemolysis; format: cell-based
Description: The complement mediated hemolysis is widely used as a means to determine the titration of complement. The principle of this method is based on the fact that hemolysis is caused by the activation of complement, when the latter is added to a complex (immune complex) of erythrocytes and the antibody thereof. The degree of hemolysis varies in proportion to the amount of complement added. Therefore, when a known amount of complement admixed with a C1 esterase inhibitor is used, the hemolysis must be suppressed in proportion to the inhibitory activity.
as §2
Inhibition of complement mediated hemolysis (%): The inhibitory activity is shown in terms of percent inhibition of the compound at varied concentrations: […]

Structure (SMILES)	IC50 (Trypsin) [nM]	IC50 (Plasmin) [nM]	IC50 (Kallikrein) [nM]	IC50 (Thrombin; TAME hydrolysis) [nM]	IC50 (C1r) [nM]	IC50 (C1s) [nM]	inhibition at 10 µM (Thrombin) [%]	inhibition at 10 µM (C1r) [%]	inhibition at 10 µM (Plasmin) [%]	inhibition at 10 µM (C1s) [%]	IC50 (Thrombin) [nM]	Inhibition of complement mediated hemolysis ([1]; 1 × 10^-4) [%]	Inhibition of complement mediated hemolysis ([1]; 1 × 10^-5) [%]	Inhibition of complement mediated hemolysis ([1]; 1 × 10^-6) [%]	Inhibition of complement mediated hemolysis ([1]; 1 × 10^-7)	percentage inhibition Kallikrein (Kallikrein)
N=C(N)c1ccc2cc(OC(=O)c3ccoc3)ccc2c1 [compound 4]	2000	1000	–	700	600	300	–	–	–	–	–	100	65	30	NE (the percentage inhibition is less than 10%)	43%
COc1ccc2[nH]c(C(=O)Oc3ccc4cc(C(=N)N)ccc4c3)cc2c1 [compound 33]	200	2000	10000	–	2000	2000	40	–	–	–	–	–	–	–	–	–
COc1ccc2c(c1)c(CC(=O)Oc1ccc3cc(C(=N)N)ccc3c1)c(C)n2C(=O)c1ccc(Cl)cc1 [compound 35]	1	100	10000	90	400	800	–	–	–	–	–	–	–	–	–	–
N=C(N)c1ccc2cc(OC(=O)C=Cc3c[nH]c4ccccc34)ccc2c1 [compound 38]	9000	800	–	–	–	600	11	42	–	–	–	–	–	–	–	17%
N=C(N)c1ccc2cc(OC(=O)c3ccc4[nH]cnc4c3)ccc2c1 [compound 43]	100	–	–	–	300	500	46	–	31	–	–	–	–	–	–	41%
N=C(N)c1ccc2cc(OC(=O)C=Cc3cccnc3)ccc2c1 [compound 50]	6000	4000	–	–	5000	–	14	–	–	18	–	–	–	–	–	NE (the percentage inhibition is less than 10%)
N=C(N)c1ccc2cc(OC(=O)C3CCNCC3)ccc2c1 [compound 64]	–	–	–	–	–	7000	–	45	–	–	–	–	–	–	–	–

Continued, in another order:

IC50 (Trypsin) [nM]	IC50 (Plasmin) [nM]	IC50 (Kallikrein) [nM]	IC50 (Thrombin; TAME hydrolysis) [nM]	IC50 (C1r) [nM]	IC50 (C1s) [nM]	inhibition at 10 µM (Thrombin) [%]	inhibition at 10 µM (C1r) [%]	inhibition at 10 µM (Plasmin) [%]	inhibition at 10 µM (C1s) [%]	IC50 (Thrombin) [nM]	Structure (SMILES)	Inhibition of complement mediated hemolysis ([1]; 1 × 10^-4) [%]	Inhibition of complement mediated hemolysis ([1]; 1 × 10^-5) [%]	Inhibition of complement mediated hemolysis ([1]; 1 × 10^-6) [%]	Inhibition of complement mediated hemolysis ([1]; 1 × 10^-7)	percentage inhibition Kallikrein (Kallikrein)
200	400	300	500	200	400	–	–	–	–	–	N=C(N)Nc1ccc(CCc2ccc(C(=O)Oc3ccc4cc(C(=N)N)ccc4c3)o2)cc1 [compound 2, 6-amidino-2-naphthyl 5-(p-guanidinophenylethyl)-furan-2-carboxylate]	100	100	97	89%	–
400	1000	–	400	500	4000	–	–	–	–	–	N=C(N)c1ccc2cc(OC(=O)c3ccco3)ccc2c1 [compound 3]	100	100	100	100%	NE (the percentage inhibition is less than 10%)
500	3000	2000	400	300	4000	–	–	–	–	–	N=C(N)c1ccc2cc(OC(=O)c3ccc(COCc4ccccc4)o3)ccc2c1 [compound 7]	100	98	96	98%	–
400	2000	4000	600	–	4000	–	–	–	–	–	N=C(N)c1ccc2cc(OC(=O)c3ccc(CO)o3)ccc2c1 [compound 8]	100	100	97	92%	–
500	900	2000	300	300	4000	–	–	–	–	–	CC(=O)OCc1ccc(C(=O)Oc2ccc3cc(C(=N)N)ccc3c2)o1 [compound 9]	100	100	96	77%	–
200	500	200	300	200	900	–	–	–	–	–	CSCc1ccc(C(=O)Oc2ccc3cc(C(=N)N)ccc3c2)o1 [compound 11]	100	100	99	88%	–
2000	2000	5000	–	–	–	13	–	–	–	–	N=C(N)c1ccc2cc(OC(=O)c3ccc(Cn4ccnc4)cc3)ccc2c1 [compound 42]	–	–	–	–	–
–	–	–	–	–	–	–	29	–	< 10	–	N=C(N)c1ccc2cc(OC(=O)c3ccc4ccccc4n3)ccc2c1 [compound 52]	100	97	99	97%	–
60	3000	2000	–	3000	400	41	–	–	–	–	N=C(N)c1ccc2cc(OC(=O)C3CCN(C(=O)OCc4ccccc4)CC3)ccc2c1 [compound 55]	–	–	–	–	–
3000	–	–	–	2000	–	–	–	31	16	3000	CN1c2ccccc2Sc2ccc(CC(=O)Oc3ccc4cc(C(=N)N)ccc4c3)cc21 [compound 61]	–	–	–	–	17%
